From patent publication US6265450A, “Anti-stress composition” (Suntory Limited, priority 1995, dated 2001)
Where two headings read alike, the source gives them in different places.

Legend:
[1] = cited from earlier work
[2] = test system: P815 mastocytoma; assay: Effect of restraint stress on promotion of cancer metastasis (transplanted nodes on liver surface); type: in vivo, male DBA/2 mice; details: Roche synthetic astaxanthin, 1 mg/kg by gavage three times in MCT; 16 days after transplantation; FIG. 7
Experimental: 7 week old, male DBA/2 mice were purchased from Japan Clea Co., Ltd., and after housing on a preliminary basis for 1 week in a specific pathogen free (SPF) atmosphere, the animals were used in the experiment at age 8 weeks.
The experimental mice were divided into three groups consisting of a restraint stress non-loaded control group (8 mice), a restraint stress loaded control group (8 mice) and a restraint stress loaded astaxanthin group (9 mice). Astaxanthin was administered orally by gavage three times on the day before restraint, immediately after the start of restraint and the day after the start of restraint at a dose of 1 mg/kg (MCT solution) each. Roche astaxanthin, a synthetic form of astaxanthin, was used for the test substance, while the control groups were orally administered MCT only three times by gavage. Restraint stress loading was performed under the same conditions as Example 1.
Mastocytoma subcultured in the abdominal cavities of DBA/2 mice in this laboratory was used for the P815 mastocytoma (DBA/2 mouse cutaneous mastocytoma). 1×10^4 cells/animal were transplanted into the caudal vein of each animal. […] The liver was excised 16 days after transplantation and after Vaughn's fixation, the number of transplanted nodes on the liver surface was measured.

[3] = test system: cancer cell; details: cited from earlier work
[4] = test system: thymus weight; assay: Effect of restraint stress on decreased thymus weight; type: in vivo, male C57BL/6 mice; details: Astaxanthin (Roche) in MCT; for minimal effective dose: Mus musculus, po
Text: Six week old, male C57BL/6 mice were purchased from Japan Clea Co., Ltd., and after preliminarily keeping for 1 week in an SPF (specific pathogen free) environment, were used in the experiment at age 7 weeks.
The mice were divided into a restrained group (16 mice) and a non-restrained group (5 mice). The unrestrained group was used as a control group. The restrained group was further divided into 4 groups of 4 mice each, and designated as the restrained control group, vitamin E group, β-carotene group and astaxanthin group. The restrained groups were restrained for 20 hours in metal restraint cages under conditions of minimal body movement and access to drinking water to induce restraint stress.
ASTAX 5000 manufactured by Itano Refrigated Food Co., Ltd. (containing 3.57% astaxanthin diester and 1.53% astaxanthin monoester), extracted and purified from krill, was used for astaxanthin. ASTAX 5000 was dissolved in medium chain fatty acid triglyceride (MCT) to a concentration of 100 mg/10 ml as astaxanthin content and used as the test substance solution. Vitamin E and β-carotene were dissolved in MCT, and MCT only was administered to the control group. The test substances were given orally three times on the day before restraint, immediately after restraint, and on the day after restraint at a dose of 100 mg/kg, for each test substance.
The mice were sacrificed by dislocation of the cervical vertebra 48 hours after the start of restraint. The thymus gland was excised and weighed.
Astaxanthin (Roche) was dissolved in MCT to astaxanthin concentrations of 0.04 mg/10 ml, 0.2 mg/10 ml, 1.0 mg/10 ml and 5.0 mg/10 ml to prepare the test substance solutions.
Thymus weight and spleen-origin NK cell activity were measured using the same procedures as described in Examples 1 and 2.

[5] = test system: antibody production; details: cited from earlier work

CC1=C(/C=C/C(C)=C/C=C/C(C)=C/C=C/C=C(C)/C=C/C=C(C)/C=C/C2=C(C)C(=O)[C@@H](O)CC2(C)C)C(C)(C)C[C@H](O)C1=O [astaxanthin]
oxidation and decomposition in air [1]: easily oxidized and decompose relatively easily in air
inhibition of promotion of cancer metastasis caused by stress [2]: remarkable inhibition of promotion of cancer metastasis
cancer cell growth inhibitory activity [3]: cancer cell growth inhibitory activity
inhibitory effect on decreases in thymus weight caused by stress loading ([4]; 0.04-5.0 mg/10 ml, FIG. 5): dose-dependent inhibitory effects
minimal effective dose ([4]; FIG. 5, read-out: doses at which the effect on decreased thymus weight was significant): ≥ 1 mg/kg
minimal effective dose ([4]; suggested by thymus weight and NK cell activity, read-out: minimum effective dose of the anti-stress effect): ~1 mg/kg
antibody production activity [5]: antibody production activity
